One data set relates to GSH/GST. The experiment in a line: Relative rate of activation by GSH/GST in vitro. Format: in vitro ADME. As to conditions: GSH 1 mM, GST 400 μg/ml; for Relative Activation Rate by GSH/GST: 1 mM compound, compound 6 = 100. As for the experimental part: When R^3 is a methyl group, the rate of activation by GSH/GST is highly dependent upon the nature of the 2-alkoxy- or 2-aryloxycarbonyl moiety at the R^4 position.
The rate of activation of 2-(2-bromoethoxy)carbonyl-1,2-bis(methylsulfonyl)-1-methylhydrazine (compound 8) was elevated approximately 18-fold in vitro by the presence of GSH (1 mM) and GST (400 μg/ml), compared to buffer alone.

The test system of the next data set is L1210 leukemia. In words: Survival time and body weight of mice bearing the L1210 leukemia. Format: in vivo, mice (CD2 F1). As to conditions: for Av Δ wt (average percent change in body weight from onset to termination of therapy) / % 60-day survivors: Table 4; for Av Δ wt (average percent change in body weight from onset to termination of therapy): i.p. once daily for 6 days at optimum daily dose (10a 60, 10b 25, 10c 12.5, 10d-h 30 mg/kg); for % 60-day survivors: i.p. once daily for 6 days at optimum daily dose (30 mg/kg for 10d-g); for % Body Weight Change / Average Survival / T/C / Long Term Survival: Table 5; for Long Term Survival: survivors/animals. As for the experimental part: The ascites cell form of leukemia L1210 was obtained from the Frederick Cancer Research Facility, Division of Cancer Treatment Tumor Repository of the National Cancer Institute, and was maintained by serial passage in tissue culture. Every 8 weeks, tumor cells were injected intraperitoneally into 5 donor CD2 F1 mice 8-10 weeks of age and were allowed to grow for 7 days. The peritoneal fluid was withdrawn, and the suspension was centrifuged for 5 min at 1600×g. The supernatant was decanted, and 10^5 cells/ml were seeded into 10 ml of RPMI 1640 medium supplemented with 10% fetal bovine serum and 1% L-glutamine (200 mM) and once again maintained in culture. To assay for antitumor activity, 0.1 ml of the cell suspension containing 10^5 leukemia cells was injected into each recipient mouse. […] Each drug was administered intraperitoneally as a solution in 100% dimethyl sulfoxide, in a volume not exceeding 25 μl. […] Mice were weighed during the course of the experiments, and the percentage change in body weight from onset to termination of therapy was used as an indication of drug toxicity. Determination of the sensitivity of neoplasms to these agents was based upon the prolongation of survival time afforded by the drug treatments.
The antitumor activity of compounds 10a-h and 16 were assessed in mice bearing the L1210 leukemia. The results of these tests are summarized in Tables 4 and 5 which show the effects of 2-alkoxycarbonyl- and 2-aryloxycarbonyl-1,2-bis(methylsulfonyl)-1-(2-chloroethyl)hydrazines on the survival time of mice bearing the L1210 leukemia.
In Table 4, the optimum daily dose was administered once per day for six consecutive days, beginning 24 hours after tumor implantation, with 5-10 mice being used per group. In Table 5, multiple dosages of compound 16 are indicated. "Av Δ wt" refers to the average percent change in body weight from onset to termination of therapy. "% T/C" refers to the average survival time of treated/control mice×100. Cures (60-day survivors) are listed separately and are not included in this calculation.

Another data set relates to GST. The experiment in a line: Activation by GST-catalyzed thiolysis. Format: in vitro ADME. As to conditions: 1 mM phosphate buffer, 5 mM GSH, 17.5 U/ml GST, pH 7.4, 37° C. As for the experimental part: (§1) The rates of activation of compounds 10a-h were measured in 1 mM phosphate buffer (pH 7.4, 37° C.) alone, 1 mM phosphate buffer containing 5 mM GSH (pH 7.4, 37° C.), and in 1 mM phosphate buffer containing 5 mM GSH and 17.5 U/ml of GST (pH 7.4, 37° C.) (Table 3).

Data set [1] in a line: Activation by hydrolysis in phosphate buffer. Format: physicochemical. To be noted: 1 mM phosphate buffer, pH 7.4, 37° C. On the procedure:
as §1

The nature of data set [2]: Activation by thiolysis (GSH). As to conditions: 1 mM phosphate buffer, 5 mM GSH, pH 7.4, 37° C. The data set is classed as in vitro ADME. On the procedure:
as §1

Data set [3] has as its system EMT6 mammary carcinoma cells. The experiment in a line: Colony-forming assay, EMT6 cells under hypoxic or aerobic conditions. To be noted: 1 hr. Format: cell-based, mouse. As for the experimental part: The ability of compounds 10h, 11, 12, and 14 to exert preferential toxicity to hypoxic cells was evaluated using the EMT6 mammary carcinoma by methodology described previously (Rockwell, S., Keyes, S. R., and Sartorelli, A. C. Rad. Res. 116: 100-113 (1988); Keyes, S. R., Rockwell, S., and Sartorelli, A. C. Cancer Res. 45: 213-216 (1985)). Briefly, exponentially growing monolayers of EMT6 (or CHO-K1/dhfr clone) were exposed to a continuously flowing 95% N2 /5% CO2 humidified atmosphere for 2 h to produce radiobiologic hypoxia. Parallel flasks were maintained similarly in humidified 95% air/5% CO2. Without breaking the hypoxia, cells were exposed to various concentrations of the test agent for 1 hr. Cell survival was then measured by colony formation.
The cytotoxicity of compound 10h was evaluated against EMT6 mouse mammary carcinoma cells in vitro under aerobic and hypoxic conditions using the colony-forming assay described above. FIG. 1 depicts the survival of EMT6 cells exposed to various concentrations of compound 10h for 1 hr under hypoxic or aerobic conditions in vitro. Points are the geometric means of two or more independent determinations of surviving fractions. The SEMs are shown where n≥3 and where the error is larger than the point size. Open triangles represent aerobic data points and filled triangles represent hypoxic data points.
Compound 12 was evaluated for its ability to exert preferential toxicity to hypoxic EMT6 cells relative to their aerobic counterparts. […] Points are geometric means of two or more independent determinations of surviving fractions. The SEMs are shown where n≥3 and where the error is larger than the point size. Open triangles are aerobic data points, and filled triangles are hypoxic data points. […] Points are means of duplicate determinations. Open triangles are parental-aerobic; filled triangles are parental-hypoxic; open circles are NADPH:cytochrome P450 reductase-transfected-aerobic; filled circles are NADPH:cytochrome P450 reductase-transfected-hypoxic.

The values that follow come from patent US6040338A, “N,n-bis(sulfonyl)hydrazines useful as antineoplastic agents” (Yale University, priority 1997, dated 2000).

SMILES strings stand for the structures. “Also recorded” adds a separate entry of the source. Where a name gives a salt, the structure may show the parent alone.

For the compound `CCOC(=O)N(N(C)S(C)(=O)=O)S(C)(=O)=O` [Compound 7, 1,2-Bis(methylsulfonyl)-2-(ethoxycarbonyl)-1-methylhydrazine], the “Relative Activation Rate by GSH/GST” value in the data set with GSH/GST is listed as 30.
As to `CN(N(C(=O)OCCBr)S(C)(=O)=O)S(C)(=O)=O` [Compound 8, 1,2-Bis(methylsulfonyl)-2-(2-bromoethoxycarbonyl)-1-methylhydrazine], in the data set with GSH/GST, the “Relative Activation Rate by GSH/GST” value worked out at 300. In addition, the “elevation of rate of activation by GSH and GST compared to buffer alone” value with GSH/GST (in vitro) is recorded as “approximately 18 fold”.
Consider `COC(=O)N(N(CCCl)S(C)(=O)=O)S(C)(=O)=O` [Compound 10a, 1,2-Bis(methylsulfonyl)-1-(2-chloroethyl)-2-(methoxycarbonyl)hydrazine], for which the “Av Δ wt (average percent change in body weight from onset to termination of therapy)” value with L1210 leukemia is -10.9%. Besides, the “Calculated Activation Rate due to Catalyzed Thiolysis (5 mM GSH + 17.5 U/ml GST)” value with GST is 0.00 nmol/mL/min. Further, the “Calculated Activation Rate due to Hydrolysis” value in data set [1] is 0.03 nmol/mL/min. The “Calculated Activation Rate due to Thiolysis (5 mM GSH)” value in data set [2] was 0.02 nmol/mL/min.
Regarding `CS(=O)(=O)N(CCCl)N(C(=O)OCCCl)S(C)(=O)=O` [Compound 10b, 1,2-Bis(methylsulfonyl)-1-(2-chloroethyl)-2-(2-chloroethoxycarbonyl)hydrazine], the “Av Δ wt (average percent change in body weight from onset to termination of therapy)” value with L1210 leukemia is -10.7%. Also, the “Calculated Activation Rate due to Catalyzed Thiolysis (5 mM GSH + 17.5 U/ml GST)” value in the data set on GST is 0.08 nmol/mL/min. Besides, the “Calculated Activation Rate due to Hydrolysis” value in data set [1] was 0.02 nmol/mL/min. For the same compound, the “Calculated Activation Rate due to Thiolysis (5 mM GSH)” value in data set [2] was 0.02 nmol/mL/min.
For the compound `C=COC(=O)N(N(CCCl)S(C)(=O)=O)S(C)(=O)=O` [Compound 10c, 1,2-Bis(methylsulfonyl)-1-(2-chloroethyl)-2-(vinyloxycarbonyl)hydrazine], in the data set on L1210 leukemia, the “Av Δ wt (average percent change in body weight from onset to termination of therapy)” value is -12.4%. Besides, the “Calculated Activation Rate due to Catalyzed Thiolysis (5 mM GSH + 17.5 U/ml GST)” value with GST is 4.70 nmol/mL/min. The “Calculated Activation Rate due to Hydrolysis” value in data set [1] is 0.07 nmol/mL/min. Also, in data set [2], the “Calculated Activation Rate due to Thiolysis (5 mM GSH)” value was 2.07 nmol/mL/min.
As for `CS(=O)(=O)N(CCCl)N(C(=O)Oc1ccccc1)S(C)(=O)=O` [Compound 10d, 1,2-Bis(methylsulfonyl)-1-(2-chloroethyl)-2-(phenoxycarbonyl)hydrazine], in the data set with L1210 leukemia, the “% 60-day survivors” value is recorded as 40% and the “Av Δ wt (average percent change in body weight from onset to termination of therapy)” value is recorded as -1.0%. The “Calculated Activation Rate due to Catalyzed Thiolysis (5 mM GSH + 17.5 U/ml GST)” value in the data set with GST was 1.80 nmol/mL/min. For the same compound, the “Calculated Activation Rate due to Hydrolysis” value in data set [1] is 0.06 nmol/mL/min. The “Calculated Activation Rate due to Thiolysis (5 mM GSH)” value in data set [2] is 0.37 nmol/mL/min.
As for `Cc1ccc(OC(=O)N(N(CCCl)S(C)(=O)=O)S(C)(=O)=O)cc1` [Compound 10e, 1,2-Bis(methylsulfonyl)-1-(2-chloroethyl)-2-[(4-tolyloxy)carbonyl]hydrazine], in the data set with L1210 leukemia, the “% 60-day survivors” value worked out at 20% and the “Av Δ wt (average percent change in body weight from onset to termination of therapy)” value is on record as -3.0%. For the same compound, the “Calculated Activation Rate due to Catalyzed Thiolysis (5 mM GSH + 17.5 U/ml GST)” value with GST is 1.52 nmol/mL/min. In data set [1], the “Calculated Activation Rate due to Hydrolysis” value is 0.02 nmol/mL/min. The “Calculated Activation Rate due to Thiolysis (5 mM GSH)” value in data set [2] was 0.45 nmol/mL/min.
The like results for `CS(=O)(=O)N(CCCl)N(C(=O)Oc1ccc(Cl)cc1)S(C)(=O)=O` [Compound 10f, 1,2-Bis(methylsulfonyl)-1-(2-chloroethyl)-2-[(4-chlorophenoxy)carbonyl]hydrazine] were, in that order, 80%, -1.1%, 5.33 nmol/mL/min, 0.06 nmol/mL/min and 0.92 nmol/mL/min.
The like results for `COc1ccc(OC(=O)N(N(CCCl)S(C)(=O)=O)S(C)(=O)=O)cc1` [Compound 10g, 1,2-Bis(methylsulfonyl)-1-(2-chloroethyl)-2-[(4-methoxyphenoxy)carbonyl]hydrazine] were, in that order, 40%, -2.5%, 1.80 nmol/mL/min, 0.14 nmol/mL/min and 0.41 nmol/mL/min.
With `CS(=O)(=O)N(CCCl)N(C(=O)OCc1ccccc1)S(C)(=O)=O` [Compound 11, 2-Benzyloxycarbonyl-1,2-bis(methylsulfonyl)-1-(2-chloroethyl)hydrazine], in data set [3] (hypoxic or aerobic (FIG. 2)), the “toxicity to EMT6 cells, aerobic versus hypoxic (in words)” value is reported as “essentially equitoxic to EMT6 cells under both conditions of oxygenation”.
On to `CC(OC(=O)N(N(CCCl)S(C)(=O)=O)S(C)(=O)=O)c1ccc([N+](=O)[O-])cc1` (centres unmarked) [Compound 14, 1,2-Bis(methylsulfonyl)-1-(2-chloroethyl)-2-[[1-(4-nitrophenyl)ethoxy]carbonyl]hydrazine], for which the “toxicity to aerobic EMT6 cells compared with compound 10h (in words)” value in data set [3] (aerobic (FIG. 7 versus FIG. 1)) is “less toxic to aerobic EMT6 cells than compound 10h”. In data set [3] (hypoxic (FIG. 7 versus FIG. 1)), the “toxicity to hypoxic EMT6 cells compared with compound 10h (in words)” value was “essentially the same as that of compound 10h”.
For the compound `CS(=O)(=O)N(CCCl)N(C(=O)OCOP(=O)(O)O)S(C)(=O)=O` [Compound 16, triethanolamine salt of the free acid acid of O-dibenzylphosphate-methyl carbamate], in the data set on L1210 leukemia (multiple dose 6 × 10 mg/kg), the “% Body Weight Change” value is reported as -3.6%, the “Average Survival” value worked out at 14.7 days, the T/C (usually the ratio of treated to control) was found to be 184% and the “Long Term Survival” value was 2/5. Also, in the data set with L1210 leukemia (multiple dose 6 × 20 mg/kg), the “% Body Weight Change” value is “+2.5%”, the “Average Survival” value was 19.5 days, the T/C stood at 244% and the “Long Term Survival” value is given as 3/5. For the same compound, in the data set on L1210 leukemia (multiple dose 6 × 40 mg/kg), the “% Body Weight Change” value is “+3.7%” and the “Long Term Survival” value is listed as 5/5. Moreover, in the data set on L1210 leukemia (multiple dose 6 × 60 mg/kg), the “% Body Weight Change” value is -23.2%, the “Average Survival” value amounted to 11.0 days, the T/C stood at 138% and the “Long Term Survival” value is 3/5. Besides, the “activity against the L1210 leukemia (in words)” value in the data set on L1210 leukemia (i.p. once daily for 6 days) is listed as “significant activity against the L1210 leukemia tumor; also recorded: significant antitumor activity”.
